Values quoted from earlier work in paper PMC12833858 (Journal of Medicinal Chemistry, 2026).

Experiments:
[1] = biological target: T1, Aurora A (Homo sapiens, UniProt O14965); parameters: method as in Adhikari et al.; details: isothermal titration calorimetry, n = 4; ref Adhikari et al.; read-out: KD Aurora A (ITC)
T1 sequence (O14965 1-403): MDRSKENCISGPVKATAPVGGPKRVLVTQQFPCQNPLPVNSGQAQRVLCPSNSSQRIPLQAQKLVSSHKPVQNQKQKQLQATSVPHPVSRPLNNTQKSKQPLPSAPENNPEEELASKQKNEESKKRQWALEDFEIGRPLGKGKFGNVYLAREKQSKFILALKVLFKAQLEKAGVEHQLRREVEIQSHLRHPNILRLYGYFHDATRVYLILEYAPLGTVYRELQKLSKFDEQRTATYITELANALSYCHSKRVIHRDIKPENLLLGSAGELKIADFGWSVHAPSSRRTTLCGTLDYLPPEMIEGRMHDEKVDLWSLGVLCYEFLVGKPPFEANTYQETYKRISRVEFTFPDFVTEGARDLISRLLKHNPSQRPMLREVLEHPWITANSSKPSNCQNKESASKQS

[2] = biological target: T1, Aurora A; parameters: expressed in transfected cells; details: reported value, HiBiT assay in MV4-11 pediatric leukemia cells

Which Kd [1] does the source give for `COc1cc(Nc2ncc3c(n2)-c2ccc(Cl)cc2C(c2c(F)cccc2OC)=NC3)ccc1C(=O)NCCOCCOCCNC(=O)COc1cccc2c1C(=O)N(C1CCC(=O)NC1=O)C2=O` (centres unmarked) [JB170] here?
The Kd was 375 ± 22 nM.

And the DC50 [2]?
The DC50 was 28 nM.
